ChEMBL document CHEMBL3526084, “Cytochrome P450 dysregulations in thioacetamide-induced liver cirrhosis in rats and the counteracting effects of hepatoprotective agents” (Drug Metab Dispos, 2012)
Active and inactive are the calls of the source. The calls are words filed in the database; no cut-off is given here.

Tests used:
[1] = system: Rattus norvegicus; assay: Upregulation of CYP3A2 in Sprague-Dawley rat liver at 200 mg/kg administered intragastrically qd for 2 weeks by Western blotting analysis; format: ADME, organism-based; parameters: dose 200 mg/kg, route intragastric; conditions: in vivo, po, 336 h
[2] = system: Rattus norvegicus; assay: Downregulation of CYP1A2 in Sprague-Dawley rat liver at 200 mg/kg administered intragastrically qd for 2 weeks by Western blotting analysis; format: ADME, organism-based; parameters: dose 200 mg/kg, route intragastric; conditions: in vivo, po, 336 h
[3] = system: Liver microsome; assay: Reversal of thioacetamide-induced CYP3A2 inactivation in rat liver microsomes at 2 to 50 uM in presence of NADPH; format: functional
[4] = system: Rattus norvegicus; assay: Hepatoprotective activity in thioacetamide-induced Sprague-Dawley rat liver cirrhosis model assessed as downregulation of CYP2E1 protein level at 200 mg/kg administered intragastrically qd for 2 weeks by Western blotting analysis relative to control; format: functional; conditions: route intragastric
[5] = system: Rattus norvegicus; assay: Hepatoprotective activity in thioacetamide-induced Sprague-Dawley rat liver cirrhosis model assessed as downregulation of CYP3A2 protein level at 200 mg/kg administered intragastrically qd for 2 weeks by Western blotting analysis relative to control; format: functional; conditions: route intragastric
[6] = system: Rattus norvegicus; assay: Hepatoprotective activity in thioacetamide-induced Sprague-Dawley rat liver cirrhosis model assessed as downregulation of CYP2C6 protein level at 200 mg/kg administered intragastrically qd for 2 weeks by Western blotting analysis relative to control; format: functional, organism-based; parameters: dose 200 mg/kg
[7] = system: Rattus norvegicus; assay: Upregulation of CYP2C6 in Sprague-Dawley rat liver at 200 mg/kg administered intragastrically qd for 2 weeks by Western blotting analysis; format: ADME, organism-based; parameters: dose 200 mg/kg, route intragastric; conditions: in vivo, po, 336 h
[8] = system: Liver microsome; assay: Reversal of thioacetamide-induced CYP1A2 inactivation in rat liver microsomes at 0.2 to 5 mM in presence of NADPH; format: functional
[9] = system: Rattus norvegicus; assay: Hepatoprotective activity in thioacetamide-induced Sprague-Dawley rat liver cirrhosis model assessed as downregulation of CYP1A2 protein level at 200 mg/kg administered intragastrically qd for 2 weeks by Western blotting analysis relative to control; format: functional, organism-based; parameters: dose 200 mg/kg
[10] = system: Liver microsome; assay: Reversal of thioacetamide-induced CYP2C6 inactivation in rat liver microsomes at 2 to 50 uM in presence of NADPH; format: functional
[11] = system: Liver microsome; assay: Reversal of thioacetamide-induced CYP2E1 inactivation in rat liver microsomes at 0.2 to 5 mM in presence of NADPH; format: functional
[12] = system: Liver microsome; assay: Reversal of thioacetamide-induced CYP3A2 inactivation in rat liver microsomes at 0.2 to 5 mM in presence of NADPH; format: functional
[13] = system: Liver microsome; assay: Reversal of thioacetamide-induced CYP1A2 inactivation in rat liver microsomes at 2 to 50 uM in presence of NADPH; format: functional
[14] = system: Rattus norvegicus; assay: Hepatoprotective activity in thioacetamide-induced Sprague-Dawley rat liver cirrhosis model assessed as reversal of thioacetamide-induced change in serum ALT level at 200 mg/kg administered intragastrically qd for 2 weeks by […]; format: functional, organism-based; parameters: dose 200 mg/kg
[15] = system: Liver microsome; assay: Reversal of thioacetamide-induced CYP2C6 inactivation in rat liver microsomes at 0.2 to 5 mM in presence of NADPH; format: functional
[16] = system: Liver microsome; assay: Reversal of thioacetamide-induced CYP2E1 inactivation in rat liver microsomes at 2 to 50 uM in presence of NADPH; format: functional
[17] = system: Rattus norvegicus; assay: Hepatoprotective activity in thioacetamide-induced Sprague-Dawley rat liver cirrhosis model assessed as reversal of thioacetamide-induced change in serum TBIL level at 200 mg/kg administered intragastrically qd for 2 weeks by […]; format: functional, organism-based; parameters: dose 200 mg/kg
[18] = system: Rattus norvegicus; assay: Upregulation of CYP2E1 in Sprague-Dawley rat liver at 200 mg/kg administered intragastrically qd for 2 weeks by Western blotting analysis; format: ADME, organism-based; parameters: dose 200 mg/kg, route intragastric; conditions: in vivo, po, 336 h
[19] = system: Rattus norvegicus; assay: Hepatoprotective activity in thioacetamide-induced Sprague-Dawley rat liver cirrhosis model assessed as reversal of thioacetamide-induced change in serum AST level at 200 mg/kg administered intragastrically qd for 2 weeks by […]; format: functional, organism-based; parameters: dose 200 mg/kg

## COC(=O)c1cc(OC)c2c(c1-c1c(C(=O)OC)cc(OC)c3c1OCO3)OCO2 [BIFENDATE]
[1]
  Activity: Active
[2]
  Activity: Active
[3]
  Activity: inactive
[4]
  fold change (FC): 2.26
[5]
  fold change (FC): 1.56
[6]
  Activity: Active
[7]
  Activity: Active
[8]
  Activity: inactive
[9]
  Activity: Active
[10]
  Activity: inactive
[11]
  Activity: inactive
[12]
  Activity: inactive
[13]
  Activity: inactive
[14]
  Activity: Active
[15]
  Activity: inactive
[16]
  Activity: inactive
[17]
  Activity: Active
[18]
  Activity: Active
[19]
  Activity: Active
